{"source": "patent US7833513B2", "about": "“Treatment of Alzheimer's Disease” (Rhode Island Hospital, priority 2004, dated 2010)", "key": {"IGF-I receptor": {"test_system": "IGF-I receptor", "type": "in vivo, Long Evans rat", "settings": "temporal lobe membrane extracts"}, "[1]": {"test_system": "GFAP, GSK-3β, phospho-GSK-3β, ubiquitin, tau, phospho-tau, β-actin", "test": "ic-STZ model: Western blot analysis of temporal lobe tissue", "type": "in vivo, Long Evans rat", "settings": "40 mg/kg ic-STZ, Mean±S.E.M.", "procedure": "Western blot analysis was used to assess the levels of Akt, phospho-Akt, GSK-3β, phospho-GSK-3β, Tau, and β-actin. […] Protein concentration was determined using the bicinchoninic acid (BCA) assay (Pierce, Rockford, Ill.). Samples containing 100 μg of protein were fractionated by sodium dodecyl sulfate, polyacrylamide gel electrophoresis (SDS-PAGE). (Ausubel et al., Current Protocols in Molecular Biology (2000)). Proteins were transferred to Immobilon-P (Millipore Corporation, Bedford, Mass.) PVDF membranes and non-specific binding sites were adsorbed with SuperBlock-TBS (Pierce, Rockford, Ill.). Membranes were incubated over night at 4° C. with primary antibody (0.5-1 μg/ml) diluted in Tris-buffered saline (TBS; 50 mM Tris, 150 mM NaCl, pH 7.4) containing 1% bovine serum albumin and 0.05% Tween-20 (TBST-BSA). Immunoreactivity was detected using horseradish peroxidase (HRP) conjugated IgG (Pierce, Rockford, Ill.), Western Lightning chemiluminescence reagents (Perkin Elmer Life Sciences Inc., Boston, Mass.), and film autoradiography. All incubations were performed using gentle platform agitation. Immunoreactivity was quantified using the Kodak Digital Science Imaging Station (NEN Life Sciences, Boston, Mass.).\nWestern blot analysis was used to assess the levels of tau, phospho-tau, ubiquitin, GSK-3β, phospho-GSK-3β, GFAP, and β-actin as described above.\nStudies were performed to determine if ic-STZ-induced neurodegeneration was associated with increased activation of GSK-3β (reduced phospho-GSK-3β/total GSK-3β ratio) and increased levels of phospho-tau. Since characteristic features of AD-type neurodegeneration also include increased ubiquitination of proteins, including tau (Godbolt et al., Arch. Neurol. 62:1097 (2005); Kosik et al., Biochim. Biophys. Acta 1739:298 (2005); de Vrij et al., Prog. Neurobiol. 74:249 (2004)) and gliosis associated with cell loss, Western blot analysis was used to measure ubiquitin and GFAP immunoreactivity as well. β-actin expression was measured as a […].\nValues correspond to arbitrary densitometry units (Mean±S.E.M.). Results were analyzed using Student t-tests."}, "[2]": {"test_system": "brain immunoreactivity (p53, GFAP, phospho-tau, ubiquitin, Aβ, ChAT, AChE)", "test": "ic-STZ model: immunohistochemical staining of brain", "type": "in vivo, Long Evans rat", "excerpt": "Paraffin-embedded histological sections of pancreas (5 μm thick) and brain (8 μm thick) were stained with hematoxylin and eosin (H&E) and examined for histopathological lesions, i.e., inflammation, necrosis, and islet cell degeneration. […] Paraffin sections of brain were immunostained with monoclonal or polyclonal antibodies to phospho-tau, Aβ, p53, ubiquitin, glial fibrillary acidic protein (GFAP), choline acetyltransferase (ChAT), and acetylcholinesterase (AChE) to characterize the nature of ic-STZ-induced AD-type neurodegeneration. As negative controls for the immunostaining reactions, either the primary antibody was omitted or non-relevant monoclonal antibody to Hepatitis B virus was used in place of the relevant antibody.\nPrior to immunostaining, the deparaffinized, re-hydrated tissue sections were sequentially treated with 0.1 mg/ml saponin in phosphate buffered saline (10 mM sodium phosphate, 0.9% NaCl, pH 7.4; PBS), for 20 minutes at room temperature. Endogenous peroxidase activity was quenched by treating the tissue sections with 3% hydrogen peroxide in methanol for 10 minutes, and non-specific binding sites were blocked by a 30-minute incubation in SuperBlock-TBS (Pierce Chemical Co., Rockford, Ill.) at room temperature. After overnight incubation at 4° C. with antibodies diluted to 0.1-1 μg/ml (according to the manufacturer's recommendations), immunoreactivity was detected using rat tissue-pre-adsorbed biotinylated secondary antibodies, avidin biotin horseradish peroxidase complex (ABC) reagents, and diaminobenzidine as the chromogen (Vector Laboratories, Burlingame, Calif.). de la Monte et al., Lab. Invest. 80:1323 (2000). The sections were counterstained with hematoxylin and preserved with mounting medium and coverglass. All sections were examined under code."}, "[3]": {"test_system": "cerebral cortex and hippocampus glucose and glycogen metabolism", "settings": "adult rats, intracerebroventricular injection; cited from earlier work"}, "[4]": {"settings": "temporal cortex, hippocampus, hypothalamus/thalamus, cerebellar cortex"}}, "data": [{"smiles": "CN(N=O)C(=O)NC1C(O)OC(CO)C(O)C1O", "note": "(centres unmarked) [STZ]", "values": [{"measurement": "IGF-I binding vs control", "setting": "IGF-I receptor", "value": "increased, although the difference was not statistically significant"}, {"measurement": "GFAP protein (Western blot)", "setting": "[1]", "value": "983591 ± 113549 arbitrary densitometry units"}, {"measurement": "GSK-3β protein (Western blot)", "setting": "[1]", "value": "149945 ± 15588 arbitrary densitometry units"}, {"measurement": "Tau protein (Western blot)", "setting": "[1]", "value": "686442 ± 65138 arbitrary densitometry units"}, {"measurement": "Ubiquitin protein (Western blot)", "setting": "[1]", "value": "1390824 ± 133586 arbitrary densitometry units"}, {"measurement": "p-GSK-3β protein (Western blot)", "setting": "[1]", "value": "2811 ± 296 arbitrary densitometry units"}, {"measurement": "p-Tau protein (Western blot)", "setting": "[1]", "value": "3378 ± 920 arbitrary densitometry units"}, {"measurement": "β-Actin protein (Western blot, negative control)", "setting": "[1]", "value": "196548 ± 14314 arbitrary densitometry units"}, {"measurement": "p53 immunoreactivity in brain", "setting": "[2]; 14- and 21-day post-treatment", "value": "only slightly increased relative to control"}, {"measurement": "p53 immunoreactivity in brain", "setting": "[2]; Day 7 post-treatment", "value": "prominently increased"}, {"measurement": "Aβ immunoreactivity", "setting": "[2]; neurons, vessels, plaque-like deposits", "value": "increased"}, {"measurement": "AChE immunoreactivity", "setting": "[2]; rat, in vivo", "value": "increased"}, {"measurement": "ChAT immunoreactivity", "setting": "[2]; rat, in vivo", "value": "decreased"}, {"measurement": "GFAP immunoreactivity", "setting": "[2]; rat, in vivo", "value": "globally increased"}, {"measurement": "phospho-tau immunoreactivity", "setting": "[2]; [4]", "value": "increased"}, {"measurement": "ubiquitin immunoreactivity", "setting": "[2]; [4]", "value": "increased"}, {"measurement": "chronic reduction in glucose and glycogen metabolism", "setting": "[3]", "value": "10-30%"}]}]}
